Reference: patent publication US8633204B2 (Pfizer Inc., priority 2006, dated 2014)

How the values were obtained:
PI3-Kα = PI3-Kα (Mus musculus (Mouse), UniProt P42337); test: PI3-Kα Biochemical Assay (fluorescence polarization kinase assay)
In short: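 Co-expressed mouse p110/p85 PI3-Kα (4 nM stock) acting on PI(4,5)P2 (60 μM stock) with ATP/MgCl2 in HEPES pH 7.4 buffer, 35 min at room temperature, then EDTA stop. PI(3,4,5)P3 product detected by displacement of TAMRA-PIP3 from Grip1 PH domain (FP, 535/580 nm). IC50 from sigmoidal fit of % inhibition.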

[1] = tested on: PI3-K in BT20 cells (phosphorylation of AKT at serine 473); test: PI3-Kα Cellular Assay (AKT Ser473 phosphorylation ELISA in BT20 cells); assay type: cell-based, human; conditions: Homo sapiens, BT-20, pAKT Ser473 ELISA, 1 hour incubation
In short: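 Cells seeded overnight in 0.5% FBS, then exposed 1 h at 37 °C to an 11-concentration 1:3 dilution series, in duplicate.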

Sequence of PI3-Kα (P42337 whole entry, the tested form may be a part): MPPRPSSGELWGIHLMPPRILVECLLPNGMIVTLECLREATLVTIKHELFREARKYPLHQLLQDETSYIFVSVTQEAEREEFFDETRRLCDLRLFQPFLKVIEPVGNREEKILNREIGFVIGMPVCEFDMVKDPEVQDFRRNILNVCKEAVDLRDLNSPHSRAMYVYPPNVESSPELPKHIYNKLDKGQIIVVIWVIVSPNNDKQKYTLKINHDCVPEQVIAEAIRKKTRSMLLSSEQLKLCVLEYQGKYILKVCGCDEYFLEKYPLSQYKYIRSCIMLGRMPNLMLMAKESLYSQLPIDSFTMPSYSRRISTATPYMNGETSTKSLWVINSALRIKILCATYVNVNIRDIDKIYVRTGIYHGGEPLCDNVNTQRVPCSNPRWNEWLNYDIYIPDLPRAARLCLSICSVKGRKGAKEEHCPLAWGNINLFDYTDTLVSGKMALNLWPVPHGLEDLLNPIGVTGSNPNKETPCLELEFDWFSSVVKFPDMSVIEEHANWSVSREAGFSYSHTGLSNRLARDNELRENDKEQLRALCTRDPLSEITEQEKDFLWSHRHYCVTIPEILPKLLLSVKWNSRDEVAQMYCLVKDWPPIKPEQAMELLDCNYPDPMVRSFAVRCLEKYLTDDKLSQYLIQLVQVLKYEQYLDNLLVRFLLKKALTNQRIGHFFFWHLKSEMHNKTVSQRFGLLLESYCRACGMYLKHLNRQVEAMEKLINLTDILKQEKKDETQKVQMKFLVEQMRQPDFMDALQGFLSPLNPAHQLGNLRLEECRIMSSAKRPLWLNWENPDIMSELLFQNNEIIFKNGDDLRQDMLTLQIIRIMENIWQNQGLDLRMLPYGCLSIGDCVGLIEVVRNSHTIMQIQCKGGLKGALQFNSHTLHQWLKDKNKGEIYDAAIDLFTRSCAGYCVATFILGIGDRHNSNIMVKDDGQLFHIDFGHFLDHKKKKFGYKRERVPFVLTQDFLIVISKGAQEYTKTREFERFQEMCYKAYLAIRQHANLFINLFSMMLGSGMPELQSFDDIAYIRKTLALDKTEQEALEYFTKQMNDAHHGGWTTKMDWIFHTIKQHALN
Sequence of PI3-Kα (P26450 whole entry partner, the tested form may be a part): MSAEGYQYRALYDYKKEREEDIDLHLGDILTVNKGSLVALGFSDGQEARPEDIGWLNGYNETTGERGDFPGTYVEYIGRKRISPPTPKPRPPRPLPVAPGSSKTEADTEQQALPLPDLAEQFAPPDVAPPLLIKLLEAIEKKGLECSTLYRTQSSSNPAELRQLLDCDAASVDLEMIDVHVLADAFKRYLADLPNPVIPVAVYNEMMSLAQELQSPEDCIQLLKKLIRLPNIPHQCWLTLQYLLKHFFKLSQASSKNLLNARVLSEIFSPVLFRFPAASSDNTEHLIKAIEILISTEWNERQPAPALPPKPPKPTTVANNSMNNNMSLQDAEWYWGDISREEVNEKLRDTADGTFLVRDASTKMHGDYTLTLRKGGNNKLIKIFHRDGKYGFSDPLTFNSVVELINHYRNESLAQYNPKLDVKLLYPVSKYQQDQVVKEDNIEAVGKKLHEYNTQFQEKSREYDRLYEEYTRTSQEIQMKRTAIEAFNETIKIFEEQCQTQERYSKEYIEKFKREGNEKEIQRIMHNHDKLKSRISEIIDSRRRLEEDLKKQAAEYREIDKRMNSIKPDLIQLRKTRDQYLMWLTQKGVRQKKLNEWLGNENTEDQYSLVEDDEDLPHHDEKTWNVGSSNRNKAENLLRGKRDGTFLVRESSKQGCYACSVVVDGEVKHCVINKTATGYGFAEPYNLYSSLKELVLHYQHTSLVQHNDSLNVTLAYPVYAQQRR

SMILES	IC50 (PI3-Kα) [µM]	IC50 [1] [µM]	inhibition at 50 µM (PI3-Kα; at 50 μM) [%]
COc1ccc(-c2cc3c(C)nc(NCC(C)(C)O)nc3n(C3CCCC3)c2=O)cn1 [Compound 116, 8-Cyclopentyl-2-(2-hydroxy-2-methylpropylamino)-6-(6-methoxypyridin-34)-4-methylpyrido[2,3-d]pyrimidin-7(8H)-one]	0.83	5.75	
Cc1nc(N)nc2c1cc(-c1ccncc1)c(=O)n2Cc1ccc(Cl)cc1 [Compound 151, 8-(4-Chlorobenzyl)-2-amino-4-methyl-6-(pyridin-4-yl)pyrido[2,3-d]pyrimidin-7(8H)-one]	4.9	> 10	
COc1ncccc1-c1cc2c(C)nc(N)nc2n(C2CCCC2)c1=O [Compound 126]	0.856	5.48	
Cc1nc(N)nc2c1cc(-c1cnc3[nH]ccc3c1)c(=O)n2C1CCOCC1 [Compound 201, 2-amino-4-methyl-6-(1H-pyrrolo[2,3-b]pyridin-5-yl)-8-(tetrahydro-2H-pyran-4-yl)pyrido[2,3-d]pyrimidin-7(8H)-one]	0.0037	0.0153	
Cc1nc(N)nc2c1cc(-c1cnc(O)nc1)c(=O)n2C1CCOCC1 [Compound 267, 2-Amino-6-(2-hydroxypyrimidin-5-yl)-4-methyl-8-(tetrahydro-2H-pyran-4-yl)pyrido[2,3-d]pyrimidin-7(8H)-one]	0.81	10	
CNc1nc(C)c2cc(-c3cnn(CC(F)F)c3)c(=O)n(C3CCCC3)c2n1 [Compound 236, 8-Cyclopentyl-6-[1-(2,2-difluoro-ethyl)-1H pyrazol-4-yl]-4-methyl 2-methylamino-8H-pyrido[2,3 d]pyrimidin-7-one]	0.046	10	
CNc1nc(C)c2cc(-c3cnn(CCO)c3)c(=O)n(C3CCCC3)c2n1 [Compound 105, 8-Cyclopentyl-6-(1-(2-hydroxyethyl)-1H-pyrazol-4-yl)-4-methyl-2-(methylamino)pyrido[2,3-d]pyrimidin-7(8H)-one]	0.024	0.234	
COc1ncc(-c2cc3c(C)nc(N)nc3n([C@H]3CC[C@H](OCCO)CC3)c2=O)cc1F [Compound 288, 2-amino-6-(5-fluoro-6-methoxypyridin-3-yl)-8-[trans-4-(2-hydroxyethoxy)cyclohexyl]-4-methylpyrido[2,3-d]pyrimidin-7(8H)-one]	0.00144	0.0053	
COc1ccc(-c2cc3c(C)nc(N)nc3n([C@@H]3CC[C@H](O)C3)c2=O)cn1 [Compound 155, 2-amino-8-[(1R,3S)-3-hydroxycyclopentyl]-6-(6-methoxypyridin-3-yl)-4-methylpyrido[2,3-d]pyrimidin-7(8H)-one]	0.011	0.0829	
Cc1nc(N)nc2c1cc(-c1cc[nH]n1)c(=O)n2[C@H]1CC[C@H](O)CC1 [Compound 186, 2-Amino-8-((trans)-4-hydroxycyclohexyl)-4-methyl-6-(1H-pyrazol-3-yl)pyrido[2,3-d]pyrimidin-7(8H)-one]	0.01	0.0252	

The remaining compounds from weak to strong by IC50 [1], led by results:

IC50 (PI3-Kα) [µM]	IC50 [1] [µM]	inhibition at 50 µM (PI3-Kα; at 50 μM) [%]	SMILES
3.4	10		Cc1nc(N)nc2c1cc(-c1ccc(F)cc1)c(=O)n2CC(C)(C)O [Compound 170, 2-amino-6-(4-fluorophenyl)-8-(2-hydroxy-2-methylpropyl)-4-methylpyrido[2,3-d]pyrimidin-7(8H)-one]
3.3	10		CCN(CC)C(=O)OCn1cc(-c2cc3c(C)nc(N)nc3n(C(C)C)c2=O)nn1 [Compound 263, (4-(2-Amino-8-isopropyl-4-methyl-7-oxo-7,8-dihydropyrido[2,3-d]pyrimidin-6-yl)-1H-1,2,3-triazol-1-yl)methyl diethylcarbamate]
	10	27	CCNc1nc(C)c2cc(CCC(=O)N(C)C)c(=O)n(C3CCCC3)c2n1 [Compound 121, 3-(8-Cyclopentyl-2-(ethylamino)-4-methyl-7-oxo-7,8-dihydropyrido[2,3-d]pyrimidin-6-yl)-N,N-dimethylpropanamide]
0.34	4.53		COc1ccc(-c2cc3c(C)nc(N)nc3n(CCN)c2=O)cn1 [Compound 238, 2-Amino-8-(2-amino-ethyl)-6-(6-methoxy-pyridin-3-yl)-4-methyl-8H-pyrido[2,3-d]pyrimidin-7-one]
0.4	2.33		CNc1nc(C)c2cc(-c3cnc(N)c(OC[C@H](C)N)n3)c(=O)n(C3CCCC3)c2n1 [Compound 103, 6-(5-amino-6-{[(2S)-2-aminopropyl]oxy}pyrazin-2-yl)-8-cyclopentyl-4-methyl-2-(methylamino)pyrido[2,3-d]pyrimidin-7(8H)-one]
0.1	2.13		Cc1nc(N)nc2c1cc(Br)c(=O)n2CC1CCCO1 (stereo not drawn) [Compound 222, 2-amino-6-bromo-4-methyl-8-((tetrahydrofuran-2-yl)methyl)pyrido[2,3-d]pyrimidin-7(8H)-one]
0.027	0.172		COc1ccc(-c2cc3c(C)nc(N)nc3n(C3CCN(C(=O)OC(C)(C)C)C3)c2=O)cn1 (stereo not drawn) [Compound 246, 3-[2-Amino-6-(6-methoxy-pyridin-3-yl)-4-methyl-7-oxo-7H-pyrido[2,3-d]pyrimidin 8-yl]-pyrrolidine-1-carboxylic acid tert-butyl ester]
0.0297	0.146		CNc1nc(C)c2cc(-c3ccc(Cl)nc3)c(=O)n(C3CCCC3)c2n1 [Compound 138, 6-(6-chloropyridin-3-yl)-8-cyclopentyl-4-methyl-2-(methylamino)pyrido[2,3-d]pyrimidin-7(8H)-one]
0.021	0.12		COc1ccc(-c2cc3c(C)nc(N)nc3n(CC3CCCO3)c2=O)cn1 (stereo not drawn) [Compound 224, 2-amino-6-(6-methoxypyridin-3-yl)-4-methyl-8-((tetrahydrofuran-2-yl)methyl)pyrido[2,3-d]pyrimidin-7(8H)-one]
0.005	0.0722		CNc1nc(C)c2cc(C(=O)Nc3ccon3)c(=O)n(C3CCCC3)c2n1 [Compound 283, 8-cyclopentyl-N-isoxazol-3-yl-4-methyl-2-(methylamino)-7-oxo-7,8-dihydropyrido[2,3-d]pyrimidine-6-carboxamide]
0.0028	0.0578		Cc1nc(N)nc2c1cc(-c1cnc3[nH]ccc3c1)c(=O)n2CC1CCOC1 (stereo not drawn) [Compound 221, 2-amino-4-methyl-6-(1H-pyrrolo[2,3-b]pyridin-5-yl)-8-((tetrahydrofuran-3-yl)methyl)pyrido[2,3-d]pyrimidin-7(8H)-one]
0.012	0.0468		COc1ccc(-c2cc3c(C)nc(NCC(F)F)nc3n([C@H]3CC[C@H](O)CC3)c2=O)cn1 [Compound 275, 2-(2,2-Difluoroethylamino)-8-(4-hydroxycyclohexyl)-6-(6-methoxypyridin-3-yl)-4-methylpyrido[2,3-d]pyrimidin-7(8H)-one]
0.00159	0.0206		CCNc1nc(C)c2cc(-c3cnc(OC)nc3)c(=O)n([C@H]3CC[C@H](O)CC3)c2n1 [Compound 277, 2-(ethylamino)-8-(trans-4-hydroxycyclohexyl)-6-(2-methoxypyrimidin-5-yl)-4-methylpyrido[2,3-d]pyrimidin-7(8H)-one]
0.018	0.0152		Cc1nc(N)nc2c1cc(-c1cn[nH]c1)c(=O)n2C1CCC(C)(O)CC1 (stereo not drawn) [Compound 185, 2-amino-8-(4-hydroxy-4-methylcyclohexyl)-4-methyl-6-(1H-pyrazol-4-yl)pyrido[2,3-d]pyrimidin-7(8H)-one]
